Data as given in patent publication US10251889B2, “Substituted pyrazolo[1,5-a]pyrimidine compounds as Trk kinase inhibitors” (Array BioPharma, Inc., priority 2009, dated 2019).

The molecules below were run against Jak2 (human Jak2 kinase domain, amino acids 808-1132) (Homo sapiens (Human), UniProt O60674) (assay: Jak2 inhibition assay (Omnia kinase assay)). Conditions: read-out: Jak2 Enzyme (% inhibition at 1000 nM), Table 1; 1000 nM test compound.
Format: biochemical
Procedure: The assays described in Examples C, D, E and F for the determination of JAK1, JAK2, JAK3 and Tyk2 kinase activity, respectively, utilized the Omnia® Kinase fluorescence peptide substrate-based technology (Invitrogen). […] The reactions were therefore read at excitation 360 nm and emission was measured at 485 nm every 50 seconds for 45 minutes using a PerkinElmer EnVision Multilabel Plate Reader.
The final buffer conditions for each of the JAK1, JAK2, JAK3 and Tyk2 assays were as follows: 25 mM HEPES, pH 7.4, 10 mM MgCl2, 0.01% Triton X-100 and 1 mM DTT.
Two-μL aliquots of these were transferred to a fresh plate for a ten-fold intermediate dilution with assay buffer. Five-μL aliquots of the diluted compounds were then transferred to 20-μL of assay mixtures described in Examples C, D, E and F for a final concentration of DMSO of 2%. […] For each plate, percent of control (POC) values were calculated for each well according to the following equation:
where Xmax=Average Uninhibited Controls • Xmin=Average Background IC50's were estimated from the POC's using a standard 4-parameter logistic model:
where A=Minimum Y (Bottom Asymptote) • B=Maximum Y (Top Asymptote) • C=EC50 • D=Slope Factor • X=Compound Concentration (nM) • Y=POC
The IC50 is defined as the concentration of inhibitor at which the POC equals 50 for the fitted curve.
Compounds of Formula I were screened for their ability to inhibit Jak2 using the general enzyme inhibition assay method, in which the assay mixture contained 500 μM ATP, 10 μM Omnia® Y7 peptide (Catalog # IVGN KNZ3071C, Invitrogen Corporation, Carlsbad, Calif.) and 4 nM Jak2 in a total volume of 20 μL. Human Jak2 kinase domain comprising amino acids 808-1132 was purchased from Invitrogen Corporation, Carlsbad, Calif. (catalog # IVGN PV4210).

Jak2 (human Jak2 kinase domain, amino acids 808-1132), sequence (O60674 808-1132): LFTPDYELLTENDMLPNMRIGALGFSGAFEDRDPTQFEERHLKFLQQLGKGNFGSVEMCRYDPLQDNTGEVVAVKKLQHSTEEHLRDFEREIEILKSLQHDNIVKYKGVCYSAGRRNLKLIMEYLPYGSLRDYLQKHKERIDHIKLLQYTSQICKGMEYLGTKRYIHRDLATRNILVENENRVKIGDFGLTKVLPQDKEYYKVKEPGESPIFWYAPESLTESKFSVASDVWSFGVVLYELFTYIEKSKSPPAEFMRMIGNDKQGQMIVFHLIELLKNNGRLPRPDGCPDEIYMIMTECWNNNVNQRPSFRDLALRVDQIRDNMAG

Compared with `CC1(C)OCC(COc2cc(F)cc([C@H]3CCCN3c3ccn4ncc(C(=O)NC5CC5)c4n3)c2)O1` (stereo partly drawn) [Example 206, N-cyclopropyl-5-((2R)-2-(3-((2,2-dimethyl-1,3-dioxolan-4-yl)methoxy)-5-fluorophenyl)pyrrolidin-1-yl)pyrazolo[1,5-a]pyrimidine-3-carboxamide], `CC1(C)OCC(COc2ccc(F)cc2[C@H]2CCCN2c2ccn3ncc(C(=O)NC4CC4)c3n2)O1` (stereo partly drawn) [Example 204, N-cyclopropyl-5-((2R)-2-(2-((2,2-dimethyl-1,3-dioxolan-4-yl)methoxy)-5-fluorophenyl)pyrrolidin-1-yl)pyrazolo[1,5-a]pyrimidine-3-carboxamide] is higher in inhibition at 1 µM: 12.6% for the first, 37% for the second.

First: CC1(C)CC[C@H](c2cc(F)ccc2F)N1c1ccn2ncc(C(=O)NC3CC3)c2n1 [Example 68, (R)—N-cyclopropyl-5-(5-(2,5-difluorophenyl)-2,2-dimethylpyrrolidin-1-yl)pyrazolo[1,5-a]pyrimidine-3-carboxamide]
Second: CC1(C)CC[C@H](c2cc(F)ccc2F)N1c1ccn2ncc(C(N)=O)c2n1 [Example 67, (R)-5-(5-(2,5-difluorophenyl)-2,2-dimethylpyrrolidin-1-yl)pyrazolo[1,5-a]pyrimidine-3-carboxamide]
The inhibition at 1 µM of the first is higher: 23% for the first, 22.3% for the second.

Compared with `O=C(c1cnn2ccc(N3CCC[C@@H]3c3cncc(F)c3)nc12)N1CC(CO)C1` [Example 127, (R)-(5-(2-(5-fluoropyridin-3-yl)pyrrolidin-1-yl)pyrazolo[1,5-a]pyrimidin-3-yl)(3-(hydroxymethyl)azetidin-1-yl)methanone], `CC(C)(CO)NC(=O)c1cnn2ccc(N3CCC[C@@H]3c3cncc(F)c3)nc12` [Example 132] is higher in inhibition at 1 µM: 0.2% for the first, 3.7% for the second.

Compared with `CC1(C)OCC(COc2ccc(F)cc2[C@H]2CCCN2c2ccn3ncc(C(N)=O)c3n2)O1` (stereo partly drawn) [Example 205, 5-((2R)-2-(2-((2,2-dimethyl-1,3-dioxolan-4-yl)methoxy)-5-fluorophenyl)pyrrolidin-1-yl)pyrazolo[1,5-a]pyrimidine-3-carboxamide], `NC(=O)c1cnn2ccc(N3CCC[C@@H]3c3cc(F)ccc3OCCN3CCOCC3)nc12` [Example 86, (R)-5-(2-(5-fluoro-2-(2-morpholinoethoxy)phenyl)pyrrolidin-1-yl)pyrazolo[1,5-a]pyrimidine-3-carboxamide] is higher in inhibition at 1 µM: 7.2% for the first, 17.3% for the second.

Compared with `CC[C@@H](CO)NC(=O)c1cnn2ccc(N3CCC[C@@H]3c3cc(F)ccc3F)nc12` [Example 178, 5-((R)-2-(2,5-difluorophenyl)pyrrolidin-1-yl)-N-((S)-1-hydroxybutan-2-yl)pyrazolo[1,5-a]pyrimidine-3-carboxamide], `C[C@H](O)CNC(=O)c1cnn2ccc(N3CCC[C@@H]3c3cc(F)ccc3F)nc12` [Example 166, 5-((R)-2-(2,5-difluorophenyl)pyrrolidin-1-yl)-N-(2-hydroxypropyl)pyrazolo[1,5-a]pyrimidine-3-carboxamide] is lower in inhibition at 1 µM: 16.9% for the first, 13.8% for the second.

First: O=C(N[C@H]1CCC[C@H]1O)c1cnn2ccc(N3CCC[C@@H]3c3cncc(F)c3)nc12 [Example 104, 5-((R)-2-(5-fluoropyridin-3-yl)pyrrolidin-1-yl)-N-((1S,2R)-2-hydroxycyclopentyl)pyrazolo[1,5-a]pyrimidine-3-carboxamide]
Second: O=C(N[C@@H]1CCCC[C@H]1O)c1cnn2ccc(N3CCC[C@@H]3c3cncc(F)c3)nc12 [Example 136, 5-((R)-2-(5-fluoropyridin-3-yl)pyrrolidin-1-yl)-N-((1R,2R)-2-hydroxycyclohexyl)pyrazolo[1,5-a]pyrimidine-3-carboxamide]
The inhibition at 1 µM of the first is higher: 6.1% for the first, 4.8% for the second.

First: O=C(NC1CCOCC1)c1cnn2ccc(N3CCC[C@@H]3c3cncc(F)c3)nc12 [Example 72, (R)-5-(2-(5-fluoropyridin-3-yl)pyrrolidin-1-yl)-N-(tetrahydro-2H-pyran-4-yl)pyrazolo[1,5-a]pyrimidine-3-carboxamide]
Second: CC1(NC(=O)c2cnn3ccc(N4CCC[C@@H]4c4cncc(F)c4)nc23)CCC1 [Example 102, (R)-5-(2-(5-fluoropyridin-3-yl)pyrrolidin-1-yl)-N-(1-methylcyclobutyl)pyrazolo[1,5-a]pyrimidine-3-carboxamide]
The inhibition at 1 µM of the first is lower: 11.7% for the first, 17.3% for the second.

First: CNC(=O)c1cnn2ccc(N3CCC[C@@H]3c3cc(F)cnc3C)nc12 [Example 186, (R)-5-(2-(5-fluoro-2-methylpyridin-3-yl)pyrrolidin-1-yl)-N-methylpyrazolo[1,5-a]pyrimidine-3-carboxamide]
Second: Cc1ncc(F)cc1[C@H]1CCCN1c1ccn2ncc(C(=O)NC(C)C)c2n1 [Example 184, (R)-5-(2-(5-fluoro-2-methylpyridin-3-yl)pyrrolidin-1-yl)-N-isopropylpyrazolo[1,5-a]pyrimidine-3-carboxamide]
The inhibition at 1 µM of the first is lower: 10.5% for the first, 11.8% for the second.

First: CONC(=O)c1cnn2ccc(N3CCC[C@@H]3c3cc(F)ccc3F)nc12 [Example 65, (R)-5-(2-(2,5-difluorophenyl)pyrrolidin-1-yl)-N-methoxypyrazolo[1,5-a]pyrimidine-3-carboxamide]
Second: COCCNC(=O)c1cnn2ccc(N3CCC[C@@H]3c3cc(F)ccc3F)nc12 [Example 172, 5-((R)-2-(2,5-difluorophenyl)pyrrolidin-1-yl)-N-(2-methoxyethyl)pyrazolo[1,5-a]pyrimidine-3-carboxamide]
The inhibition at 1 µM of the first is higher: 34.1% for the first, 11% for the second.

First: CC(C)NC(=O)c1cnn2ccc(N3CCC[C@@H]3c3cc(F)cn(C)c3=O)nc12 [Example 227, (R)-5-(2-(5-fluoro-1-methyl-2-oxo-1,2-dihydropyridin-3-yl)pyrrolidin-1-yl)-N-isopropylpyrazolo[1,5-a]pyrimidine-3-carboxamide]
Second: CNC(=O)c1cnn2ccc(N3CCC[C@@H]3c3cc(F)cnc3OC)nc12 [Example 153, (R)-5-(2-(5-fluoro-2-methoxypyridin-3-yl)pyrrolidin-1-yl)-N-methylpyrazolo[1,5-a]pyrimidine-3-carboxamide]
The inhibition at 1 µM of the first is higher: 62.8% for the first, 33.8% for the second.

Compared with `COCCOc1cc(F)cc([C@H]2CCCN2c2ccn3ncc(C(=O)NC4CC4)c3n2)c1` [Example 77, (R)—N-cyclopropyl-5-(2-(3-fluoro-5-(2-methoxyethoxy)phenyl)pyrrolidin-1-yl)pyrazole [1,5-a]pyrimidine-3-carboxamide], `Cc1ncc(F)cc1[C@H]1CCCN1c1ccn2ncc(C(=O)N[C@H]3CC[C@H](O)C3)c2n1` [Example 196, 5-((R)-2-(5-fluoro-2-methylpyridin-3-yl)pyrrolidin-1-yl)-N-((1S,3S)-3-hydroxycyclopentyl)pyrazolo[1,5-a]pyrimidine-3-carboxamide] is lower in inhibition at 1 µM: 15.3% for the first, 10.6% for the second.

First: O=C(NC[C@@H](O)CO)c1cnn2ccc(N3CCC[C@@H]3c3cc(F)ccc3C(F)(F)F)nc12 [Example 63, N—((R)-2,3-dihydroxypropyl)-5-((R)-2-(5-fluoro-2-(trifluoromethyl)phenyl)pyrrolidin-1-yl)pyrazolo[1,5-a]pyrimidine-3-carboxamide]
Second: C[C@@H](O)CNC(=O)c1cnn2ccc(N3CCCC3c3cc(F)ccc3F)nc12 (stereo in doubt) [Example 167, 5-((R)-2-(2,5-difluorophenyl)pyrrolidin-1-yl)-N-(2-hydroxypropyl)pyrazolo[1,5-a]pyrimidine-3-carboxamide]
The inhibition at 1 µM of the first is higher: 33.1% for the first, 9.8% for the second.

First: CONC(=O)c1cnn2ccc(N3CCC[C@@H]3c3cc(F)cnc3OC)nc12 [Example 83, (R)-5-(2-(5-fluoro-2-methoxypyridin-3-yl)pyrrolidin-1-yl)-N-methoxypyrazolo[1,5-a]pyrimidine-3-carboxamide]
Second: COc1ncc(F)cc1[C@H]1CCCN1c1ccn2ncc(C(N)=O)c2n1 [Example 82, (R)-5-(2-(5-fluoro-2-methoxypyridin-3-yl)pyrrolidin-1-yl)pyrazolo[1,5-a]pyrimidine-3-carboxamide]
The inhibition at 1 µM of the first is higher: 26.3% for the first, 10.7% for the second.

Going from `CONC(=O)c1cnn2ccc(N3CCC[C@@H]3c3cccc(F)c3)nc12` [Example 75] to `CC(C)(C)NC(=O)c1cnn2ccc(N3C[C@H](O)C[C@@H]3c3cccc(F)c3)nc12` [Example 42, N-tert-butyl-5-((2R,4R)-2-(3-fluorophenyl)-4-hydroxypyrrolidin-1-yl)pyrazolo[1,5-a]pyrimidine-3-carboxamide], the inhibition at 1 µM falls from 15.1% to 7.7%.

Compared with `CC(C)[C@@H](CO)NC(=O)c1cnn2ccc(N3CCC[C@@H]3c3cncc(F)c3)nc12` [Example 121, 5-((R)-2-(5-fluoropyridin-3-yl)pyrrolidin-1-yl)-N-((S)-1-hydroxy-3-methylbutan-2-yl)pyrazolo[1,5-a]pyrimidine-3-carboxamide], `COc1ncc(F)cc1[C@H]1CCCN1c1ccn2ncc(C(=O)NC[C@@H](C)O)c2n1` [Example 157, 5-((R)-2-(5-fluoro-2-methoxypyridin-3-yl)pyrrolidin-1-yl)-N-((R)-2-hydroxypropyl)pyrazolo[1,5-a]pyrimidine-3-carboxamide] is higher in inhibition at 1 µM: 3.7% for the first, 9.6% for the second.
